Experimental data as given in patent publication US20040127396A1, “Use of furin and furin-like protease inhibitors in the treatment of inflammatory or matrix remodelling diseases” (priority 2000, published 2004).

Key:
[1] = system: TNFα release from MonoMac-1 cells; test: TNFα release from LPS/PMA-stimulated MonoMac-1 cells (ELISA); type: cell-based, human; conditions: 22 hrs preincubation, then LPS and PMA 3 hours, FIG. 5D
Procedure: To investigate whether the levels of TACE maturation observed in LoVo transfectants impacts TACE-related activities, we first measured cell-surface p75 TNF receptor expression as a marker for TACE cell-surface activity. Briefly, LoVo NEO and LoVo FUR2 cell samples were labeled with anti-TACE or anti-TNF p75 receptor antibodies (Catlag laboratories, Burlingame, Calif.) and cell fluorescence was analyzed on a FACScan (Becton Dickinson). […] Next, we measured the ability of Dec-RVKR-CH2Cl to block TNFα release from MonoMac-1 cells, a human monocytic cell line known to produce high levels of this cytokine (50). For this, MonoMac-1 cells were preincubated for 22 hrs with varying concentrations of Dec-RVKR-CH2Cl, then 500 ng/ml LPS and 100 ng/ml PMA were added. After 3 hours incubation with PMA and LPS, the supernatants were tested for TNF-α production using a TNF-α-specific ELISA assay (R&D Systems, Minneapolis, Minn.).

[2] = system: TACE maturation in LoVo NEO cells; test: TACE maturation in LoVo NEO cells by Western blotting; type: cell-based, human; conditions: 24 hrs, various concentrations, FIG. 5B
Excerpt: To assess the involvement of furin in TACE endoproteolytic processing, applicant first used a furin-deficient cell line, the LoVo cells. These are human colon carcinoma cells which have a point mutation in both alleles of the fur gene leading to production of a defective enzyme (reference 46). These furin knock-out cells have been extensively used to study the contribution of furin in a cellular context (references 10, 38 and 47). LoVo cells were transfected with wild type furin and two stable transfectants LoVoFUR1 and LoVoFUR2 and control transfectant LoVoNEO have been generated accordingly to their acquired gentamycin resistance. Cell lysates were assessed by Western blotting for the production of TACE proteolytic fragments in immunoblotting using TACE-specific antibodies (Chemicon International, CA). […]
To define if proprotein convertases other than furin are involved in TACE maturation, LoVo NEO cells were incubated for 24 hrs in the presence of Dec-RVKR-CH2Cl, a synthetic peptide that mimics proprotein recognition site. […] LoVo NEO cells were incubated for 24 hrs in the presence of various concentrations of Dec-RVKR-CH2Cl, and cell lysates were assessed for TACE maturation by Western blotting as described above.

[3] = system: proprotein convertases including furin, PC6B, PC3, PC2, PACE-4 and PC7; conditions: cited from earlier work

Substance: Dec-RVKR-CH2Cl
- TNFα released [1]: blocked almost completely
- TACE maturation [2]: further inhibition of TACE maturation
- inhibition of enzymatic activity of proprotein convertases [3]: efficiently inhibit
